According to PMC10461227, “Discovery of AD258 as a Sigma Receptor Ligand with Potent Antiallodynic Activity” (Journal of Medicinal Chemistry, 2023):
“And” between values parts separate entries of the source, which are not always exact repeats. Equal entries are not always repeated. Structures can show the parent of a compound that is named as a salt.

Assays:
S1R [1] = biological target: T1, S1R (Rattus norvegicus, UniProt Q9R0C9); test: S1R radioligand binding assay ([3H]-(+)-pentazocine, rat liver homogenates); settings: mean ± SD of at least two experiments in duplicate
T1 construct: liver homogenates from male Sprague Dawley rats; from tissue; host or cells: rat liver homogenate (male Sprague Dawley)

S2R = biological target: T2, S2R (Rattus norvegicus, UniProt Q5U3Y7); test: S2R radioligand binding assay ([3H]DTG with (+)-pentazocine mask, rat liver homogenates)
T2 construct: liver homogenates from male Sprague Dawley rats; from tissue; host or cells: rat liver homogenate (male Sprague Dawley)
T2 sequence (Q5U3Y7 1-176): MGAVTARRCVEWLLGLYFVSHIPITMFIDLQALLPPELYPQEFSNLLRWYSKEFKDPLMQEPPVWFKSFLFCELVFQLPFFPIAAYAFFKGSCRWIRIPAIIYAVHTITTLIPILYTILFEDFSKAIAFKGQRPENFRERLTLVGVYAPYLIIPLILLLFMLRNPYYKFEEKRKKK

[2] = system: human corneal epithelial cells (HCE); test: LDH cytotoxicity assay in HCE cells; assay type: cell-based; settings: 100 μM, 20 h incubation
Description: The permeability of cellular membranes following the exposures was determined by measuring the amount of released LDH (lactate dehydrogenase) enzyme from HCE cells. The commercial CytoTox 96 kit (Promega, Fitchburg, WI, USA) was used according to the manufacturer’s instructions. To measure maximal LDH release, 10 μL of 10× lysis solution was added to control wells 45 min before adding the CytoTox 96 reagent. To measure the amount of released LDH, 50 μL of each well was transferred to a fresh 96-well plate and 50 μL of CytoTox 96 reagent was added followed by a 30 min incubation period. Finally, 50 μL of stop solution was added and absorbance was recorded at 490 nm (Synergy H1 Hybrid Reader, BioTek, Winooski, VT, USA). Absorbance values were corrected by background values, and the percentage of LDH release was calculated using the following formula: 100 × experimental LDH release optical density (OD)/maximum LDH release OD.

[3] = system: capsaicin-induced mechanical hypersensitivity (allodynia) in mice; test: Capsaicin-induced mechanical hypersensitivity (allodynia) in mice; assay type: in vivo; settings: for response latency to mechanical stimulation: 40 mg/kg s.c., non-sensitized 44.19 ± 2.59 s, capsaicin + solvent 13.51 ± 1.93 s, mean ± SEM; for antiallodynic effect on capsaicin-induced allodynia (in words): 30 min before capsaicin; for dose of maximum antiallodynic effect: capsaicin-induced mechanical hypersensitivity
Description: We tested the effect of several of our compounds in capsaicin-induced mechanical hypersensitivity (allodynia) in mice (Figure 5). The increase in pain sensitivity in the area surrounding capsaicin injection results from central sensitization, and this process plays a pivotal role in chronic pain development and maintenance.[29]
Experiments were performed in female WT-CD1 mice (Charles River, Barcelona, Spain) weighing 25–30 g. […] The behavioral test was conducted during the light phase (from 9:00 to 15:00 h) and randomly throughout the estrous cycle.
Drug solutions were prepared immediately before the start of the experiments and injected s.c. in a volume of 5 mL/kg into the interscapular area. […] To test for the effects of PRE-084 on the antiallodynia induced by the other drugs, it was administered 5 min before the latter. Capsaicin was dissolved in 1% DMSO in physiological sterile saline to a concentration of 0.05 μg/μL. […] Control animals were injected with the same volume of the vehicle of capsaicin.
Animals were placed for 2 h in individual black-walled test compartments, which were situated on an elevated mesh-bottom platform with a 0.5 cm^2 grid to provide access to the ventral surface of the hind paws. […] Briefly, a nonflexible filament (0.5 mm diameter) was electronically driven into the ventral side of the right hind paw at least 5 mm away from the site of the injection toward the fingers. The intensity of the stimulation was set at 0.5g force.[30] When a paw withdrawal response occurred, the stimulus was automatically terminated, and the response latency was recorded. The filament was applied three times, separated by intervals of 0.5 min. The mean value of the three trials was considered the withdrawal latency time of the animal. A cutoff time of 50 s was used in each trial.

[4] = system: human corneal epithelial cells (HCE); test: MTT cell viability assay in HCE cells; settings: 20 h incubation; for HCE cells cell viability reduction (MTT): 100 μM
mice = test: Rotarod test (motor coordination); assay type: in vivo; settings: 9d 1.25 mg/kg s.c., pregabalin 60 mg/kg s.c.; 45-240 min after administration
Description: The rotarod test is the most standard test to assess motor function and coordination in rodents. It consists of a rotating rod where the animal is placed, and the latency to fall is measured. Drugs that negatively affect motor coordination decrease the latency to fall.[2]
Motor coordination was assessed with an accelerating rotarod (Cibertec, Madrid, Spain), as previously described.[34] Briefly, mice were required to walk against the motion of an elevated rotating drum at increasing speed (4–80 rpm over 5 min), and the latency to fall was recorded with a cut-off time of 300 s. Mice were given three training sessions 24 h before drug testing. On the day of the test, rotarod latencies were measured immediately before the drug or vehicle (saline 5% DMSO) was administered (time 0) and several times (45, 90, 150, and 240 min) after the s.c. drug administration. As a comparison drug, we used pregabalin (60 mg/kg, s.c.), which has been reported to impair rotarod performance.[34]

S1R [5] = biological target: T1, S1R; test: S1R functional assay (radioligand binding with/without phenytoin, rat liver)
[6] = biological target: T3, human serotonin 5-HT2A receptor (Homo sapiens, UniProt P28223); test: 5-HT2A receptor binding ([3H]Ketanserin)
T3 construct: host or cells: CHO-K1 cells

[7] = biological target: T4, human serotonin transporter (Homo sapiens, UniProt P31645); test: SERT binding ([3H]Paroxetine)
T4 construct: host or cells: HEK-293 cells

[8] = Water solubility (UHPLC-PDA); assay type: physicochemical; settings: free base, ultrapure water, rt
[9] = Chemical stability in phosphate buffer pH 7.4; assay type: physicochemical; settings: phosphate buffer pH 7.4, 37 °C; read-out: chemical stability T1/2
Human plasma stability = assay type: in vitro ADME; settings: pH 7.4, 37 °C, read-out: plasma stability T1/2
[10] = Metabolic stability in mouse liver microsomes; assay type: in vitro ADME
Description: (§1) Moreover, in vitro metabolic studies were performed using mouse and human liver microsomes. Following incubation at 0.1 μM with the liver microsomes for 1 h, reaction samples were analyzed by LC–MS/MS at different time points (0, 15, 30, 45, 60 min).
(§2) In vitro metabolic stability studies were performed by Eurofins Cerep Quality Control Unit (France) using mouse and human liver microsomes fractions in accordance with their validation Standard Operating Procedure.

[11] = Metabolic stability in human liver microsomes; assay type: in vitro ADME
Description: as §1, §2

hERG = hERG (Homo sapiens, UniProt Q12809); test: hERG activity (Qube APC electrophysiology, CHO-K1 cells expressing human ERG); assay type: cell-based; settings: CHO-K1 cells that express human ERG, six concentrations 10^-10 to 10^-5 M
Chain of hERG (Q12809 whole entry): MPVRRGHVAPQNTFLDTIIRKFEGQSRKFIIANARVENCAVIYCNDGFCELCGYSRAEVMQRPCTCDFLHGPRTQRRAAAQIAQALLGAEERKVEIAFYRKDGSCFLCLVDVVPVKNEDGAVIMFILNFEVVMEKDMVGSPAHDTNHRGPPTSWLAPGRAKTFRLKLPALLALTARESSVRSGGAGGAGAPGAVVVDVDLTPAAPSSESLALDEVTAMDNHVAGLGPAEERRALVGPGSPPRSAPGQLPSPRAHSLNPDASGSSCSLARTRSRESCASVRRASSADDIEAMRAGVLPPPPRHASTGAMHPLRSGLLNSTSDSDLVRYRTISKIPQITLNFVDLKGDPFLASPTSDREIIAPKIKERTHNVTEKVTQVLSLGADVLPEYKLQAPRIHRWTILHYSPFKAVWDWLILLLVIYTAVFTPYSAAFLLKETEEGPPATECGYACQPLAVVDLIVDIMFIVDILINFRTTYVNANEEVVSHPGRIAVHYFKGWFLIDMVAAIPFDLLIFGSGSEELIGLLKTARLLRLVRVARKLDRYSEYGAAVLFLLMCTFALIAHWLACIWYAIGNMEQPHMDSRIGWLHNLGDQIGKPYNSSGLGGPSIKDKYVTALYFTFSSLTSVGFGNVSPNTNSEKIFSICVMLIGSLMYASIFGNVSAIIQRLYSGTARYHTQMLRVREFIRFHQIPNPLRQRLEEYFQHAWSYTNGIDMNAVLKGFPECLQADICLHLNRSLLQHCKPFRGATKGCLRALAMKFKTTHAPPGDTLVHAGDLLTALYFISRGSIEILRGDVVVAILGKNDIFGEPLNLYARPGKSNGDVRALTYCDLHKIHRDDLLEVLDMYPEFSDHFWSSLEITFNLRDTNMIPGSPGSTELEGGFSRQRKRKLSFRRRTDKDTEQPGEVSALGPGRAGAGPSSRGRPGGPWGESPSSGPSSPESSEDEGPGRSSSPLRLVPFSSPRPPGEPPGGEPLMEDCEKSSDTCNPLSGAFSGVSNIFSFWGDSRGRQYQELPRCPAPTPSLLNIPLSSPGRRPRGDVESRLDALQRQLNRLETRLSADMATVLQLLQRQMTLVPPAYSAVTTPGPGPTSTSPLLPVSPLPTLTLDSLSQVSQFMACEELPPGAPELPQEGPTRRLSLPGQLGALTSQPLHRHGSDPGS

T1 sequence (Q9R0C9 whole entry): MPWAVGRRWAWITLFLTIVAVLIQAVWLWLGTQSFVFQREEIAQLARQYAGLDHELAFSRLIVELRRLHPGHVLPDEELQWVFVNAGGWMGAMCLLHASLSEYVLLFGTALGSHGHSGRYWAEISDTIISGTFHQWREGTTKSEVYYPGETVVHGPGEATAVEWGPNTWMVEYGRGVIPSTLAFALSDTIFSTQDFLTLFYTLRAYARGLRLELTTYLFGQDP
T4 sequence (P31645 whole entry): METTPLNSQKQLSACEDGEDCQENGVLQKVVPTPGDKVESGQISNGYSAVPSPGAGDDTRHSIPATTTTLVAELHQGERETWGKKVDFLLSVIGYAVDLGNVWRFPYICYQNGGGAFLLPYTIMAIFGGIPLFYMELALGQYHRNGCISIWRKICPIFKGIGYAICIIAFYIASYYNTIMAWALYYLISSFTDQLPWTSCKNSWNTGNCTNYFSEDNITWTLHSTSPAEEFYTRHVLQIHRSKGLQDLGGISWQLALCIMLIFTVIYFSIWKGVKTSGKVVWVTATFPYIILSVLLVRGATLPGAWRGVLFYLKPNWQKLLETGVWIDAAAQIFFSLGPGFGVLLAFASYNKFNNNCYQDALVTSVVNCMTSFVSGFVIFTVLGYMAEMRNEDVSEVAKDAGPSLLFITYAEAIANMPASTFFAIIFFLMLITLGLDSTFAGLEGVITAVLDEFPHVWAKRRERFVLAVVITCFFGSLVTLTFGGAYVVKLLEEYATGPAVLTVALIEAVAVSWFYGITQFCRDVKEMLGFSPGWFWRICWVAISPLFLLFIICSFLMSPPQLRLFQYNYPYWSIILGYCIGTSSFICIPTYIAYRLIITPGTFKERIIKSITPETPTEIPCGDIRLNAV
T3 sequence (P28223 whole entry): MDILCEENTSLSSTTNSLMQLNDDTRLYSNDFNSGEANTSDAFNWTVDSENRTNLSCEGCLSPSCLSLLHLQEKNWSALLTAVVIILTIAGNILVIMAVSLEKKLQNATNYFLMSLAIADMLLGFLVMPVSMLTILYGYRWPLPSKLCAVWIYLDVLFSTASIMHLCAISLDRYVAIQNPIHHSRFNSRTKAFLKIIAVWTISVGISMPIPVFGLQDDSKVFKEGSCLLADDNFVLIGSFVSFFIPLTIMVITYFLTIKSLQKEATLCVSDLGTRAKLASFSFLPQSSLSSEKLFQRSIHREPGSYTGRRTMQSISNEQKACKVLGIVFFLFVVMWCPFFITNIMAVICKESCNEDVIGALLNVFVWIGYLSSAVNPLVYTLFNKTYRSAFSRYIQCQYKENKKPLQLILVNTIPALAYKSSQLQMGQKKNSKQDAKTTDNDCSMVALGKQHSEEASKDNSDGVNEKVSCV

CC(C)(C)OC(=O)N1CCC2(CCN(c3ccccc3)C2)C1 (stereo not shown) [6a, tert-Butyl-7-phenyl-2,7-diazaspiro[4.4]nonane-2-carboxylate]
Ki (S1R [1]): 40.7 ± 0.95 nM
Ki (S2R): 76.1 ± 1.2 nM

c1ccc(CCN2CCC3(CCN(c4ccccc4)C3)C2)cc1 (stereo not shown) [8a, 2-Phenethyl-7-phenyl-2,7-diazaspiro[4.4]nonane]
HCE cells cytotoxicity (LDH release) [2]: 16%
response latency to mechanical stimulation [3]: 30.28 ± 5.02 s
antiallodynic effect on capsaicin-induced allodynia (in words) ([3]; s.c.): dose-dependent antiallodynic effects
dose of maximum antiallodynic effect ([3]; s.c.): 20 mg/kg
HCE cells cell viability reduction (MTT) [4]: 50%

O=[N+]([O-])c1ccc(N2CCC3(CCN(CCc4ccccc4)C3)C2)cc1 (stereo not shown) [9a, 2-(4-Nitrophenyl)-7-phenethyl-2,7-diazaspiro[4.4]nonane]
HCE cells cytotoxicity (LDH release) [2]: 23%
dose from which significant antiallodynic effects are seen ([3]; s.c.): 5 mg/kg
antiallodynic effect on capsaicin-induced allodynia (in words) ([3]; s.c.): dose-dependent and full reversal of capsaicin-induced allodynia
dose of maximum antiallodynic effect ([3]; s.c.): 10 mg/kg

N#Cc1ccc(N2CCC3(CCN(CCc4ccccc4)C3)C2)cc1 (stereo not shown) [9d, 4-(7-Phenethyl-2,7-diazaspiro[4.4]nonan-2-yl)benzonitrile]
HCE cells cytotoxicity (LDH release) [2]: 18%
effect of PRE-084 on the antiallodynic effect of the compound ([3]; PRE-084 32 mg/kg s.c. given 5 min before the compound at its dose of maximum effect): fully reversed
antiallodynic effect on capsaicin-induced allodynia (in words) ([3]; s.c.): dose-dependent and full reversal of capsaicin-induced allodynia
latency to fall from the rotarod (in words) (mice): no change in the latency to fall
S1R functional profile (S1R [5]): antagonist
inhibition at 1 µM [6]: < 50%
5-HT2A % inhibition ([6]; at 1 μM): 42%
inhibition at 1 µM [7]: < 50%
SERT % inhibition ([7]; at 1 μM): 39%
solubility at 24 h [8]: 710 µg/mL and 2140 µM
half-life [9]: > 24 h
half-life (Human plasma stability): > 24 h
microsomal CLint at 1 h, 0.1 µM ([10]; 1 h incubation): 124 µL/min/mg
half-life at 1 h, 0.1 µM ([10]; 1 h incubation, read-out: mouse liver microsomes T1/2): 0.933 h
half-life at 0.1 μM ([10]; read-out: mouse liver microsomes metabolic half-time (T1/2) (converted)): ~1 h
microsomal CLint at 1 h, 0.1 µM ([11]; 1 h incubation): 127 µL/min/mg
half-life at 1 h, 0.1 µM ([11]; 1 h incubation, read-out: human liver microsomes T1/2): 0.917 h
half-life at 0.1 μM ([11]; read-out: human liver microsomes metabolic half-time (T1/2) (converted)): ~1 h
IC50 (hERG): 85 nM
HCE cells cell viability reduction (MTT) [4]: 28%

c1ccc(CCN2CCC3(CCN(CCc4ccccc4)C3)C2)cc1 [14a, 2,7-Diphenethyl-2,7-diazaspiro[4.4]nonane]
HCE cells cytotoxicity (LDH release) [2]: 13%
response latency to mechanical stimulation [3]: 26.55 ± 3.55 s
antiallodynic effect on capsaicin-induced allodynia (in words) ([3]; s.c.): dose-dependent antiallodynic effects
dose of maximum antiallodynic effect ([3]; s.c.): 20 mg/kg
HCE cells cell viability reduction (MTT) [4]: 56%

O=C(Cc1ccc(Cl)c(Cl)c1)N1CCC2(CCN(CCc3ccccc3)C2)C1 (stereo not shown) [15a, 2-(3,4-Dichlorophenyl)-1-(7-phenethyl-2,7-diazaspiro[4.4]nonan-2-yl)ethan-1-one]
Ki (S1R [1]): 7.5 ± 1 nM
antiallodynic effect on capsaicin-induced allodynia (in words) ([3]; s.c.): dose-dependent and full antiallodynic effect
dose of maximum antiallodynic effect ([3]; s.c.): 40 mg/kg

CN1CCN(CCc2ccc(Cl)c(Cl)c2)CC1 [BD1063, 1-[2-(3,4-dichlorophenyl)ethyl]-4-methylpiperazine dihydrochloride, reference compound]
Ki (S1R [1]): 14 ± 2.7 nM

Cl.O=C(OCCN1CCOCC1)C1(c2ccccc2)CCCCC1 [PRE-084, reference compound]
HCE cells cell viability reduction (MTT) [4]: 58%
concentration above which cell viability is statistically significantly reduced (MTT) ([4]; HCE cells): above 20 μM

CC(C)C[C@H](CN)CC(=O)O [pregabalin, reference compound]
latency to fall from the rotarod (in words) (mice): markedly reduced rotarod latencies
